Laboratory results taken from US11420977B2, “Late SV40 (LSF) inhibitors” (Trustees of Boston University, priority 2018, dated 2022).

Tests used:
Type in all cases: cell-based
SNU-423 cells = assay: MTS cell proliferation assay, SNU-423; settings: Homo sapiens, 120 hrs incubation
Experimental: (§1) Cell lines and culture conditions: Human colon cancer cells Caco-2, HT29 and HCT15, human pancreatic cancer cells BxPC3, CFPAC-1, and CAPAN-2, liver cancer cells SNU423 and kidney cells HEK293, were obtained from American Type Culture Collection (Rockville, USA). HeLa, DLD1, U937, THP-1, and NIH3T3 cells were obtained from ATCC. Huh7 cells were obtained from (Japanese Cancer Resources Bank). HeLa cells, Huh7, DLD1 and NIH-3T3 cells were cultured in DMEM (Dulbecco's modification of Eagle's Medium; Corning) supplemented with 10% Fetal Bovine Serum (FBS; Invitrogen) and 10% Fetal Calf Serum (FCS; Atlanta Biologicals) respectively. U937, BxPC3, HCT15, SNU423 and THP-1 cells were grown in RPMI-1640 (Roswell Park Memorial Institute; Corning) supplemented with 10% Fetal Bovine Serum (FBS; Invitrogen). CFPAC-1 cells were cultured in Iscove's Modified Dulbecco's Medium (ATCC) supplemented with 10% FBS. CAPAN-2 and HT29 cells were cultured in McCoy's 5a medium supplemented with 10% FBS. Caco2 and HEK293 cells were grown in Eagle's Minimum Essential Medium (ATCC) with final 20% FBS concentration. All cells were maintained at 37° C. in 5% CO2 at constant 70% humidity.
(§2) MTS cell proliferation assay: Cells were detached from the plates using trypsin (0.25% for 3 mins, ATCC) and counted using a hemocytometer and were plated at 3000-1500 cells per well, in a 96-well format. The cells were seeded in the inner wells of 96 well plates, and media was added to the outer wells (blank). For NIH-3T3, 1500 cells were seeded in the inner wells of 96-well plates, and after 20 hours cells were treated with compound or DMSO (vehicle control) at appropriate concentrations (DMSO at final concentration of 1%). For other adherent cells 3000 HeLa, BxPC3, CFPAC-1, CAPAN-2, HEK293, HCT15, HT29, CaCo2, DLD1, Huh7 or SNU423 cells were seeded in in each well approximately 20 hrs prior to the treatment. For U937 and THP-1 suspension cells, 2500 cells were added to the wells of a 96-well plate on the day of treatment. After a 72-hour (or 120 hrs for BxPC3, CAPAN-2, SNU423) incubation with compound or vehicle, cell growth was assessed via the Promega CellTiter 96® AQueous One Solution Cell Proliferation Assay, a colorimetric method to determine the number of viable cells. 20 μL of the CellTiter 96® AQueous One Solution Reagent was added directly into cultured wells and incubated for approximately one hour, after which the absorbance at 490 nm was read with a 96-well plate reader (Opys MR Microplate Reader). GI50 values were determined from plots of the percentage of compound-treated cell growth to vehicle cell growth vs. compound concentration (GraphPad Prism; non-linear regression, log inhibitor verse normalized response with variable slope).

HEK-293 cells = assay: MTS cell proliferation assay, HEK-293; settings: Homo sapiens, HEK293, 72-hour incubation
Experimental: (§3) Cell lines and culture conditions: Human colon cancer cells Caco-2, HT29 and HCT15, human pancreatic cancer cells BxPC3, CFPAC-1, and CAPAN-2, liver cancer cells SNU423 and kidney cells HEK293, were obtained from American Type Culture Collection (Rockville, USA). HeLa, DLD1, U937, THP-1, and NIH3T3 cells were obtained from ATCC. Huh7 cells were obtained from (Japanese Cancer Resources Bank). HeLa cells, Huh7, DLD1 and NIH-3T3 cells were cultured in DMEM (Dulbecco's modification of Eagle's Medium; Corning) supplemented with 10% Fetal Bovine Serum (FBS; Invitrogen) and 10% Fetal Calf Serum (FCS; Atlanta Biologicals) respectively. […]
(§4) MTS cell proliferation assay: Cells were detached from the plates using trypsin (0.25% for 3 mins, ATCC) and counted using a hemocytometer and were plated at 3000-1500 cells per well, in a 96-well format. […] After a 72-hour (or 120 hrs for BxPC3, CAPAN-2, SNU423) incubation with compound or vehicle, cell growth was assessed via the Promega CellTiter 96® AQueous One Solution Cell Proliferation Assay, a colorimetric method to determine the number of viable cells. 20 μL of the CellTiter 96® AQueous One Solution Reagent was added directly into cultured wells and incubated for approximately one hour, after which the absorbance at 490 nm was read with a 96-well plate reader (Opys MR Microplate Reader). […]

NIH 3T3 cells = assay: MTS cell proliferation assay, NIH 3T3; settings: Mus musculus, NIH3T3, 72-hour incubation
Experimental: as §1, with “All cells were maintained at 37° C. in 5% CO2 at constant 70% humidity.” left out
(§5) MTS cell proliferation assay: Cells were detached from the plates using trypsin (0.25% for 3 mins, ATCC) and counted using a hemocytometer and were plated at 3000-1500 cells per well, in a 96-well format. […] After a 72-hour (or 120 hrs for BxPC3, CAPAN-2, SNU423) incubation with compound or vehicle, cell growth was assessed via the Promega CellTiter 96® AQueous One Solution Cell Proliferation Assay, a colorimetric method to determine the number of viable cells. 20 μL of the CellTiter 96® AQueous One Solution Reagent was added directly into cultured wells and incubated for approximately one hour, after which the absorbance at 490 nm was read with a 96-well plate reader (Opys MR Microplate Reader). GI50 values were determined from plots of the percentage of compound-treated cell growth to vehicle cell growth vs. compound concentration (GraphPad Prism; non-linear regression, log inhibitor verse normalized response with variable slope).

BxPC-3 cells = assay: MTS cell proliferation assay, BxPC-3; settings: Homo sapiens, 120 hrs incubation
Experimental: as §3, §4

CAPAN-2 cells = assay: MTS cell proliferation assay, CAPAN-2; settings: Homo sapiens, 120 hrs incubation
Experimental: as §3, §4

CFPAC-1 cells = assay: MTS cell proliferation assay, CFPAC-1; settings: Homo sapiens, 72-hour incubation
Experimental: as §3, §4

CaCo-2 cells = assay: MTS cell proliferation assay, CaCo-2; settings: Homo sapiens, 72-hour incubation
Experimental: as §3, §4

HCT-15 cells = assay: MTS cell proliferation assay, HCT-15; settings: Homo sapiens, 72-hour incubation
Experimental: as §3, §4

HT-29 cells = assay: MTS cell proliferation assay, HT-29; settings: Homo sapiens, 72-hour incubation
Experimental: as §3, §4

U937 cells = assay: MTS cell proliferation assay, U937; settings: Homo sapiens, U-937, 72-hour incubation
Experimental: as §3, §4

THP-1 cells = assay: MTS cell proliferation assay, THP-1; settings: Homo sapiens, 72-hour incubation
Experimental: as §3, §4

HuH7 cells = assay: MTS cell proliferation assay, HuH7; settings: Homo sapiens, Huh-7, 72-hour incubation
Experimental: as §1, §2

HeLa cells = assay: MTS cell proliferation assay, HeLa; settings: Homo sapiens, 72-hour incubation
Experimental: as §1, with “All cells were maintained at 37° C. in 5% CO2 at constant 70% humidity.” left out
as §5

RPE-hTERT Flp-In cells = assay: FQI34/FQI1 comparison, mitotic defects in RPE-hTERT Flp-In cells
Experimental: RPE-hTERT Flp-In cells were incubated in serum-free DMEM:F12 media for 24 hours to synchronize the cells in G0/G1. Cells were stimulated to reenter the cell cycle with DMEM:F12 media containing 10% Fetal Bovine Serum. After 24 hours, the cells were treated with DMSO (vehicle), FQI1 (2.5 μM or 5 μM), or FQI34 (250 nM or 500 nM) for one hour. The cells were washed twice with 1×Phosphate-buffered Saline and fixed with PHEM (3.7% formaldehyde in 100 mM PIPES at pH 6.8, 10 mM EGTA, 1 mM magnesium chloride, and 0.2% Triton X-100) for 10 minutes at room temperature. The fixed cells were stained for α-tubulin using a mouse anti-α-tubulin antibody (Fisher #62204). Secondary antibodies were: DMSO/FQI1 samples—goat anti-mouse IgG conjugated to Alexa 546 (Thermo Fisher #A11003); FQI34 samples—goat anti-mouse IgG conjugated to Texas Red (Fisher #T-862). DNA was stained with Hoechst 33342. Cells were imaged using a Nikon NiE using the 40× objective and images were captured using a DS-Qi1 Mc 12 bit camera. Scale bars and merged images were generated using Fiji software.

GI50 (SNU-423 cells): 384 nM
GI50 (BxPC-3 cells): 270 nM
GI50 (CaCo-2 cells): 501 nM
GI50 (HCT-15 cells): 224 nM
GI50 (HT-29 cells): 316 nM
GI50 (U937 cells): 250 nM
GI50 (THP-1 cells): 4800 nM
GI50 (HuH7 cells): 141 nM
GI50 (HeLa cells): 462 nM
SMILES: CCOc1cc(N(C)C)ccc1C1CC(=O)Nc2cc3c(cc21)OCO3 (stereo not drawn) [FQI-34]
GI50 (HEK-293 cells): 219 nM
GI50 (NIH 3T3 cells): 730 nM
GI50 (CAPAN-2 cells): 239 nM
GI50 (CFPAC-1 cells): 676 nM
potency for causing mitotic defects relative to FQI1 (RPE-hTERT Flp-In cells; FQI34 250 nM or 500 nM vs FQI1 2.5 μM or 5 μM, one hour): at least 10 fold
chromosome and spindle phenotype (DNA and α-tubulin immunofluorescence) (RPE-hTERT Flp-In cells; one hour treatment, FIG. 33): condensed, but nonaligned chromosomes and disrupted spindles
